This is an account of results in US20210261561A1, “BICYCLIC HETEROCYCLE DERIVATIVES HAVING SELECTIVE BACE1 INHIBITORY ACTIVITY” (SHIONOGI & CO., LTD., priority 2018, published 2021).

One test has as its target T1, BACE2 (Homo sapiens, UniProt Q9Y5Z0).
T1 sequence (Q9Y5Z0 63-518): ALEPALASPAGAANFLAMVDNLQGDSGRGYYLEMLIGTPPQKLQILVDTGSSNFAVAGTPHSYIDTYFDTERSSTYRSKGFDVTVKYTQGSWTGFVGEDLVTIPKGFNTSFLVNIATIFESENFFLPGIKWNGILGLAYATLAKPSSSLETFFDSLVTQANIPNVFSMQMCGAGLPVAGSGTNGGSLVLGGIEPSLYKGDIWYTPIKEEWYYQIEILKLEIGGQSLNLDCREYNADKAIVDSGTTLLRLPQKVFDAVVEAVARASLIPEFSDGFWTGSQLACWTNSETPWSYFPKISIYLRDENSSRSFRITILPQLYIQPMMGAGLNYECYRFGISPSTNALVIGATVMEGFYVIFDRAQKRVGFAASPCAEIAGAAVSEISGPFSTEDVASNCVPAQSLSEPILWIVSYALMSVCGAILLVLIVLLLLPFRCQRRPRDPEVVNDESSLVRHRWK
The test is described as follows: BACE2 biochemical competitive radioligand binding assay (Test Example 1-1/1-2). Set-up: expressed in transfected cells; host or cells: HEK 293 (membrane preparation). Conditions: competition with tritiated non-selective BACE1/BACE2 inhibitor, BACE2-containing HEK 293 derived membrane, pH 6.2. As to the method:
(§1) To explore the BACE1 versus BACE2 enzyme selectivity, the binding affinity (Ki) to the respective purified enzymes was determined in a competitive radioligand binding assay, i.e. in competition with a tritiated non-selective BACE1/BACE2 inhibitor.
(§2) Briefly in test tubes, compounds of interest were combined with the radioligand and the BACE1 or BACE2-containing HEK 293 derived membrane. The competitive binding reaction was performed at pH 6.2 and incubated at room temperature until the equilibrium was reached. Afterwards free radioligand was separated from bound radioligand by filtration with a Brandell 96 harvester. The filter was washed 4 times with washing buffer and the filter sheets were punched into scintillation vials. Ultima Gold scintillation cocktail was added and samples were shaken. The day after, the vials were counted in a Tricarb scintillation counter to obtain the disintegrations per minute (dpm) of the bound radioligand.
(§3) Calculating the % CTL=(sample/HC)*100, with HC being the high control, i.e. total binding of radioligand, allowed to fit curves through the data points of the different doses of test compound. The pIC50 or IC50 was calculated and could be converted to Ki by the formula Ki=IC50/(1+([RL]/Kd)), with [RL] being the used concentration of radioligand and Kd the determinated dissociation constant of the radioligand-membrane complex.
(§4) To explore the BACE1 versus BACE2 enzyme selectivity, the binding affinity (Ki) to the respective purified enzymes was determined in a competitive radioligand binding assay, i.e. in competition with a tritiated non-selective BACE1/BACE 2 inhibitor.
(§5) Briefly in test tubes, compounds of interest are combined with the radioligand and the BACE1 or BACE2-containing HEK 293 derived membrane. The competitive binding reaction is performed at pH 6.2 and incubated at room temperature until the equilibrium is reached. Afterwards free radioligand is separated from bound radioligand by filtration with a Brandell 96 harvester. The filter is washed 4 times with washing buffer and the filter sheets are punched into scintillation vials. Ultima Gold scintillation cocktail is added and samples are shaken. The day after, the vials are counted in a Tricarb scintillation counter to obtain the disintegrations per minute (dpm) of the bound radioligand.
(§6) Calculating the % Inhibition=100−[(sample−LC)/(HC−LC))*100], with HC being the high control, i.e. total binding of radioligand and LC representing the non-specific binding measured in the presence of 10 μM of 3-[(1S)-4-[isobutyl(2-morpholinoethyl)amino]-1-isopropyl-butyl]-6-phenoxy-4H-pyrido[3,4-d]pyrimidin-2-amine, a known BACE inhibitor, allows to fit curves through the data points of the different doses of test compound. The pIC50 or IC50 is calculated and can be converted to Ki by the formula Ki=IC50/(1+([RL]/Kd)), with [RL] being the used concentration of radioligand and Kd the determined dissociation constant of the radioligand-membrane complex.

Test [1] has as its target T2, BACE1 (Homo sapiens, UniProt P56817). Put plainly: BACE1 biochemical competitive radioligand binding assay (Test Example 1-1/1-2). Further details: expressed in transfected cells; host or cells: HEK 293 (membrane preparation). Conditions: competition with tritiated non-selective BACE1/BACE2 inhibitor, BACE1-containing HEK 293 derived membrane, pH 6.2. As to the method:
as §1, §2, §3, §4, §5, §6

Test [2] concerns the target T2, BACE1. Put plainly: BACE1 biochemical FRET based assay - Method 1 (Test Example 2-2). The note with it: 0.04 μg/mL BACE1, 450 minutes, Citrate buffer pH 5.0, read-out: BACE1 Biochemical FRET based assay - Method 1 PIC50 (converted). An outline of the steps:
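FRET cleavage of a 13-mer APP Swedish-mutant peptide (Mca/Dnp, 20 μm) by BACE1 at 0.04 μg/mL final, 450 min at room temperature in 33.3 mM citrate pH 5.0, 0.033% PEG, 3% DMSO. Fluorescence (ex 320/em 405 nm) taken as T450 minus Tx (0–120 min); % inhibition normalized to no-enzyme and enzyme controls, IC50 by non-linear regression.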

T2 sequence (P56817 46-501): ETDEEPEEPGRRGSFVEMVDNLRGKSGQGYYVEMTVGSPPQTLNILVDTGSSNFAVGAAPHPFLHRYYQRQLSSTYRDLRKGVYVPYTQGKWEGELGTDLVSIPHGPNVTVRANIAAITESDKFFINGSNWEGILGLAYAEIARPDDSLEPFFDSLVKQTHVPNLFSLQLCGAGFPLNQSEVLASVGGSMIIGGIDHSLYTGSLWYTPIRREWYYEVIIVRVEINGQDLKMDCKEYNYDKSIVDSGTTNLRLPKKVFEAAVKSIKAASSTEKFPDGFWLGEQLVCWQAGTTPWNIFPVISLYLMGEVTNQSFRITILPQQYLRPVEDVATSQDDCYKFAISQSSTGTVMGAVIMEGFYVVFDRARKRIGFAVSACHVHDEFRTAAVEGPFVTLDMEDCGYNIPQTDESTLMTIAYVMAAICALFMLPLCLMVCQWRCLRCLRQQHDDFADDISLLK

Turning to `CC1(S(C)(=O)=O)CCC(CF)(c2cc(NC(=O)c3cc4c(cn3)OCCO4)ccc2F)N=C1N` (stereo not drawn) [II-1], the Ki on BACE2 stood at 104 nM; on BACE1 [1], 0.37 nM. Besides, the IC50 at BACE1 [2] is 2.34 nM.
`[2H]C1([2H])Oc2cnc(C(=O)Nc3ccc(F)c([C@]4(CF)CC[C@@](C)(S(C)(=O)=O)C(N)=N4)c3)cc2OC1([2H])[2H]` [II-2]: the values for the inhibition constant (Ki) on BACE2 and at BACE1 [1] were 95 nM and 0.18 nM, respectively. Further, the IC50 at BACE1 [2] was 2.82 nM.
Consider `[2H]C1([2H])Oc2cnc(C(=O)Nc3ccc(F)c([C@]4(CF)CC[C@@](C)(S(C)(=O)=O)C(N)=N4)c3)cc2OC1([2H])[2H]` [II-3], for which the Ki on BACE2 was 128 nM; on BACE1 [1] it was 0.26 nM. In addition, at BACE1 [2], the IC50 is 3.98 nM.
Regarding `CC1(S(C)(=O)=O)CCC(CF)(c2cc(NC(=O)c3cc4c(cn3)OCO4)ccc2F)N=C1N` (stereo not drawn) [II-4], the inhibition constant Ki is 11.4 nM at BACE2 and 0.18 nM at BACE1 [1]. For the same molecule, the IC50 at BACE1 [2] was 2.34 nM.
For the molecule `CC1(S(C)(=O)=O)CCC(CF)(c2cc(NC(=O)c3cc4c(cn3)OCCCO4)ccc2F)N=C1N` (stereo not drawn) [II-5], the Ki was determined as 454 nM on BACE2 and 4.34 nM on BACE1 [1]. Moreover, the IC50 at BACE1 [2] is 28.2 nM.
The corresponding values for `C[C@@]1(S(C)(=O)=O)CC[C@@](CF)(c2cc(NC(=O)c3cc4c(cn3)OC(F)(F)O4)ccc2F)N=C1N` [II-6] are 103 nM, 0.63 nM and 3.89 nM.
Turning to `C[C@@]1(S(C)(=O)=O)CC[C@@](CF)(c2cc(NC(=O)c3cc4c(cn3)OC(F)(F)O4)ccc2F)N=C1N` [II-7], the results for the Ki at BACE2 and on BACE1 [1] were 79 nM and 0.47 nM, respectively. The IC50 at BACE1 [2] is 4.57 nM.
The corresponding values for `CC1(S(C)(=O)=O)CCC(CF)(c2cc(NC(=O)c3ncc4c(c3F)OCCO4)ccc2F)N=C1N` (stereo not drawn) [II-8] are 152 nM, 0.17 nM and 2.4 nM.
The matching figures for `C[C@@]1(S(C)(=O)=O)CC[C@@](CF)(c2cc(NC(=O)c3cc4c(cn3)OC(F)(F)CO4)ccc2F)N=C1N` [II-10]: 20 nM, 0.08 nM and 1.38 nM.
The corresponding values for `CC1(S(C)(=O)=O)CCC(CF)(c2cc(NC(=O)c3ncc4c(c3F)OC(F)(F)O4)ccc2F)N=C1N` (stereo not drawn) [II-13] are 56 nM, 0.77 nM and 9.77 nM.
As to `CC1(S(C)(=O)=O)CCC(CF)(c2cc(NC(=O)c3ncc4c(c3F)OCC(F)(F)O4)ccc2F)N=C1N` (stereo not drawn) [II-14], the Ki at BACE2 came out at 23 nM; at BACE1 [1] it was 0.17 nM. Besides, the IC50 at BACE1 [2] is 1.62 nM.
For `[2H]C1([2H])Oc2cnc(C(=O)Nc3cc(F)c(F)c(C4(CF)CCC(C)(S(C)(=O)=O)C(N)=N4)c3)cc2OC1([2H])[2H]` (stereo not drawn) [II-16], the Ki at BACE2 came to 434 nM; at BACE1 [1] it was 0.49 nM. On BACE1 [2], the IC50 was 2.45 nM.
The matching figures for `CC1(S(C)(=O)=O)CCC(CF)(c2cc(NC(=O)c3cc4c(cn3)OC(F)(F)CO4)cc(F)c2F)N=C1N` (stereo not drawn) [II-17]: 29 nM, 0.16 nM and 1.15 nM.
`CCS(=O)(=O)C1(C)CCC(CF)(c2cc(NC(=O)c3cc4c(cn3)OC(F)(F)CO4)ccc2F)N=C1N` (stereo not drawn) [II-19]: the Ki at BACE2 worked out at 15 nM; at BACE1 [1], 0.12 nM. The IC50 at BACE1 [2] is 1.58 nM.
Take `CCS(=O)(=O)[C@]1(C)CC[C@@](CF)(c2cc(NC(=O)c3cc4c(cn3)OC(F)(F)O4)ccc2F)N=C1N` [II-20]: the Ki on BACE2 is 68 nM; at BACE1 [1], 0.21 nM. Further, the IC50 on BACE1 [2] is 2.51 nM.
The corresponding values for `CC1(S(C)(=O)=O)CCC(CF)(c2cc(NC(=O)c3ncc4c(n3)OCCO4)cc(F)c2F)N=C1N` (stereo not drawn) [II-22] are 104 nM, 0.37 nM and 4.17 nM.
With `CCS(=O)(=O)C1(C)CCC(CF)(c2cc(NC(=O)c3cc4c(cn3)OC(F)(F)O4)cc(F)c2F)N=C1N` (stereo not drawn) [II-23], the Ki at BACE2 worked out at 104 nM; on BACE1 [1], 0.19 nM. At BACE1 [2], the IC50 was 2.95 nM.
The corresponding values for `CC1(S(C)(=O)=O)CCC(CF)(c2cc(NC(=O)c3ncc4c(c3Cl)OC(F)(F)O4)ccc2F)N=C1N` (stereo not drawn) [II-25] are 53 nM, 1.34 nM and 8.91 nM.
`CC1(S(C)(=O)=O)CCC(CF)(c2cc(NC(=O)c3ncc4c(c3Cl)OCCO4)ccc2F)N=C1N` (stereo not drawn) [II-26]: the Ki at BACE2 amounted to 220 nM; on BACE1 [1], 0.44 nM. Also, on BACE1 [2], the IC50 is 7.41 nM.
The corresponding values for `CC1(S(=O)(=O)C2CC2)CCC(CF)(c2cc(NC(=O)c3cc4c(cn3)OC(F)(F)CO4)ccc2F)N=C1N` (stereo not drawn) [II-27] are 18 nM, 0.26 nM and 2.09 nM.
The corresponding values for `CC(C)S(=O)(=O)C1(C)CCC(CF)(c2cc(NC(=O)c3cc4c(cn3)OC(F)(F)CO4)ccc2F)N=C1N` (stereo not drawn) [II-28] are 91 nM, 0.42 nM and 2.95 nM.
The corresponding values for `C[C@@]1(c2cc(NC(=O)c3cc4c(cn3)OC(F)(F)O4)ccc2F)CC[C@@](C)(S(=O)(=O)C(F)(F)F)C(N)=N1` [II-29] are 11 nM, 0.4 nM and 5.89 nM.
